From patent US6653478B2, “Substituted benzimidazol-2-ones as vasopressin receptor antagonists and neuropeptide Y modulators” (Ortho-McNeil Pharmaceutical, Inc., priority 2000, dated 2003)
Counter-ions that a name gives are not always drawn.

Key:
[1] = biological target: T1, human V1b receptor (Homo sapiens, UniProt P47901); test: V1b functional assay, intracellular calcium mobilization in transfected HEK-293 cells (FLIPR); type: cell-based; set-up: expressed in transfected cells; host or cells: HEK-293; conditions: for IC50: challenge 0.5 nM AVP, read-out: Cell-Based Functional activity V1b IC50
T1 sequence (P47901 1-424): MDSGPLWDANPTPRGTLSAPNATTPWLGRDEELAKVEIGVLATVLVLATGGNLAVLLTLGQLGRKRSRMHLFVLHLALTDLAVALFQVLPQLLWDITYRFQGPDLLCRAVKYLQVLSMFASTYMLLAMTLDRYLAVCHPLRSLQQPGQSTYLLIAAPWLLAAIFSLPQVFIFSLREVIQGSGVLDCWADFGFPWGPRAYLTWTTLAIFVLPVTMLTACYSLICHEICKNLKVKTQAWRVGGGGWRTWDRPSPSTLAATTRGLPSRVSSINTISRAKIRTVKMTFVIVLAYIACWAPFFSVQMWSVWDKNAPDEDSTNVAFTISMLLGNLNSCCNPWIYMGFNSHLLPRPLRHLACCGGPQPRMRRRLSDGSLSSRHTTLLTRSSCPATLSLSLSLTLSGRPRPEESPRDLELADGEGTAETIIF
Protocol: (§1) V1a, V1b or V2 Functional Assay
(§2) HEK-293 cells were grown in DMEM media supplemented with 10% FBS and glutamine (Gibco BRL, Grand Island, N.Y.). Once transfected the cells were passed biweekly by trypsinization and seeded into 96 well plates at 33,000 cells per well. HEK-293 were transfected with human V1a, V1b or V2 DNA using DMRIE-C reagent from Life Technologies, Inc., Grand Island, N.Y. Cells were tested for their responsiveness to vasopressin 48 hours after transfection. Stable lines were generated by selecting cells grown in culture media containing geneticin (500 μg/ml, Life Technologies).
(§3) Intracellular calcium mobilization was measured in HEK-293 cells transfected to express either human V1a, oxytocin or V1b receptors. Cells were plated into black 96-well Packard Clear-View plates 4 to 7 days prior to use. The cells were loaded with fluo-3 AM (Molecular Probes, Inc., Eugene, Oreg.) in buffer (25 mM Hepes, 125 mM NaCl, 1 gm/l glucose, 0.1% BSA, 5 mM KCl, 0.5 mM CaCl2, 0.5 mM MgCl2, pH 7.45) containing Pluronic (Molecular Probes) Cells were incubated with 5 μM fluo-3 AM for 1 hour shielded from light at room temperature. Intracellular fluorescence was measured using FLIPR (fluorometric imaging plate reader; Molecular Devices, Inc., Sunnyvale, Calif.). The FLIPR protocol called for images to be collected at one second intervals with 50 μl of the test compound added after the initial 10 images. An additional 70 images were then taken to detect any compound agonistic activity. FLIPR then added 50 μl of agonist peptide and collected a final 40 images for quantitating compound antagonistic activity. V1a- and V1b-expressing HEK cells were challenged with 1 nM and 0.5 nM AVP, respectively. Oxytocin-expressing HEK cells were challenged with 0.5 nM oxytocin (Peninsula Labs).
(§4) The data from the cAMP accumulation and the calcium mobilization assays are expressed as IC50 values as determined from dose response curves.

[2] = biological target: T2, human V1a receptor (Homo sapiens, UniProt P37288); test: V1a functional assay, intracellular calcium mobilization in transfected HEK-293 cells (FLIPR); set-up: expressed in transfected cells; host or cells: HEK-293; conditions: challenge 1 nM AVP; read-out: Cell-Based Functional activity V1a IC50
Protocol: as §1, §2, §3, §4

[3] = biological target: T2, human V1a receptor; test: V1a binding assay (3H-AVP displacement, HEK-293 membranes); set-up: expressed in transfected cells; host or cells: HEK-293 (membranes); conditions: for inhibition at 1 µM: 1.0 μM compound, read-out: V1a@1.0, % Inh
Summary of the method: (§5)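 Read-out is filter-retained 3H-AVP, counted by scintillation after washing with cold saline/0.05% Tween 20. Binding ran 1 hour at room temperature in pH 7.5 buffer with protease inhibitors; 1.25 μM unlabelled AVP gave non-specific binding.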

[4] = biological target: T1, human V1b receptor; test: V1b binding assay (3H-AVP displacement, HEK-293 membranes); set-up: expressed in transfected cells; host or cells: HEK-293 (membranes); conditions: for inhibition at 10 µM: 10 μM compound, read-out: V1b % Inh @10; for inhibition at 1 µM: 1.0 μM compound, read-out: V1b@1.0, % Inh
Summary of the method: as §5

[5] = biological target: T3, NPY2 receptors (Homo sapiens, UniProt P49146); test: Neuropeptide Y receptor binding assay (125I-PYY, KAN-TS cell membranes); conditions: 10 μM compound; read-out: NPY-2@10, % Inh
T3 construct: Cell Membranes from KAN-TS cells having NPY2 receptors; endogenous in cells; host or cells: KAN-TS cells (membranes)
T3 sequence (P49146 1-381): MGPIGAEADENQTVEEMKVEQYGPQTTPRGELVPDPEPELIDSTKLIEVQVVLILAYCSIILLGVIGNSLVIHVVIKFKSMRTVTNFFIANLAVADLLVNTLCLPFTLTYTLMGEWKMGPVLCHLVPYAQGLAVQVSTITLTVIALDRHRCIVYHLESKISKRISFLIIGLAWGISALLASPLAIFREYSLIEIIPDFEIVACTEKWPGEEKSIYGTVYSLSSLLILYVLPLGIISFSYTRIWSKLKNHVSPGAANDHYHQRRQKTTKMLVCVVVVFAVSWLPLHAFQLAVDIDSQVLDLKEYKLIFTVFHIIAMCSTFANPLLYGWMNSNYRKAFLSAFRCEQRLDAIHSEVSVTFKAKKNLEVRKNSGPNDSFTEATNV
Summary of the method: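 Membranes from KAN-TS cells competed with 125I-PYY in binding buffer containing BSA, test compound at 10 μM final, 1 hr at room temperature. Nonspecific binding defined with 1 μM PYY final. Tubes centrifuged, washed with PBS and bound radioactivity gamma-counted.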

[6] = biological target: human V2 receptor (Homo sapiens, UniProt P30518); test: V2 binding assay (3H-AVP displacement, HEK-293 membranes); set-up: expressed in transfected cells; host or cells: HEK-293 (membranes); conditions: for inhibition at 1 µM: 1.0 μM compound, read-out: V2@1.0, % Inh
Summary of the method: as §5

T2 sequence (P37288 whole entry): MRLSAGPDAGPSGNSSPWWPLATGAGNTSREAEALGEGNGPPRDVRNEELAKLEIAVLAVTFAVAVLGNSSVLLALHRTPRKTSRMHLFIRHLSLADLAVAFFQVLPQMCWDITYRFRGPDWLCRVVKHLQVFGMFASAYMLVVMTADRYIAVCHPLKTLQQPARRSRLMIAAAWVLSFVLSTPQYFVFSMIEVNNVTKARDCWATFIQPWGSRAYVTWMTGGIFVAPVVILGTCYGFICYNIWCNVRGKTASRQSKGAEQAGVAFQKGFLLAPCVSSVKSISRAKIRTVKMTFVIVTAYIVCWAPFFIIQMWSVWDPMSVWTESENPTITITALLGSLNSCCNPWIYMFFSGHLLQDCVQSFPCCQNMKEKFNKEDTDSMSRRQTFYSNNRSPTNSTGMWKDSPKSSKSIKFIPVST
human V2 receptor, sequence (P30518 whole entry): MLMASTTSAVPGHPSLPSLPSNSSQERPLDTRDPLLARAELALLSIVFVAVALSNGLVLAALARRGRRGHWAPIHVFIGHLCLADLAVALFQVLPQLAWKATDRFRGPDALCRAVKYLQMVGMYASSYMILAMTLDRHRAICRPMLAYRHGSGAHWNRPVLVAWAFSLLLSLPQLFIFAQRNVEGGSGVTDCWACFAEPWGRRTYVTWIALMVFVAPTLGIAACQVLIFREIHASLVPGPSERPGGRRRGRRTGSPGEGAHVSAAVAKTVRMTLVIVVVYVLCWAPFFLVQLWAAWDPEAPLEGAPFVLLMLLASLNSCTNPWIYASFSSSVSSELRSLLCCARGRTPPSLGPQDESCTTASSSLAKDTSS

Row | SMILES | melting point | inhibition at 30 µM ([1]; HEK293, 30 μM compound, read-out: Cell-Based Functional activity V1b % Inh. @ 30) | IC50 [2] | IC50 [3] | inhibition at 10 µM [4] | inhibition at 10 µM [5] | inhibition at 1 µM [6] | IC50 [1] | IC50 [4] | IC50 [6] | inhibition at 1 µM [4] | inhibition at 1 µM [3]
1 | NCCCn1c(=O)n(C2CCN(C(=S)NC(c3ccccc3)c3ccccc3)CC2)c2ccccc21 (as salt: hydrochloride) [Compound 55, 1-[(N1-Piperidinocarbothioyldiphenylmethylamino)-4-yl]-3-(3-aminopropyl)-1,3-dihydrobenzimidazol-2-one Monohydrochloride] | 189 to 190 °C |  |  |  |  |  |  |  |  |  |  | 
2 | NCCCn1c(=O)n(C2CCN(C(=O)Nc3ccccc3-c3ccccc3)CC2)c2ccccc21 [Compound 62, 1-[(N1-Piperidinocarboyl-2-biphenylylamino)-4-yl]-3-(3-aminopropyl)-1,3-dihydro-benzimidazol-2-one hydrochloride] |  | 0% | 0.69 µM | 0.2 µM | 35% | 50% | 0% |  |  |  |  | 
3 | NCCn1c(=O)n(C2CCN(C(=S)NC(c3ccccc3)c3ccccc3)CC2)c2ccccc21 [Compound 63, 1-[(N1-Piperidinocarbothioyldiphenylmethylamino)-4-yl]-3-(2-aminoethyl)-1,3-dihydrobenzimidazol-2-one Hydrochloride] |  |  | 0.31 µM | 0.05 µM | 74% | 94% | 42% | 8.06 µM | 4.7 µM |  |  | 
4 | NCCCCn1c(=O)n(C2CCN(C(=S)NC(c3ccccc3)c3ccccc3)CC2)c2ccccc21 [Compound 64, 1-[(N1-Piperidinocarbothioyldiphenylmethylamino)-4-yl]-3-(4-aminobutyl)-1,3-dihydro-benzimidazol-2-one] |  |  | 0.14 µM | 0.024 µM |  | 93% |  | 12.1 µM | 5.4 µM | 0.56 µM |  | 
5 | NCCCCn1c(=O)n(C2CCN(C(=S)NC(c3ccccc3)c3ccc(Cl)cc3)CC2)c2ccccc21 (centres unmarked) [Compound 65, 1-[(N1-Piperidinocarbothioyl-4-chlorodiphenylmethylamino)-4-yl]-3-(4-aminobutyl)-1,3-dihydro-benzimidazol-2-one] |  |  | 0.46 µM | 0.077 µM | 51% | 51% |  | 21 µM |  | 0.5 µM |  | 
6 | O=c1n(CCCN2CCCCC2)c2ccccc2n1C1CCN(C(=S)NCc2cccc3ccccc23)CC1 [Compound 112, 1-[(N1-piperidinocarbothioyl-1-naphthalmethylamino)-4-yl]-3-(3-N-piperidinylpropyl)-1,3-dihydrobenzimidazol-2-one] |  |  |  | 0.139 µM |  | 55% | 0% |  |  |  | 32% | 
7 | CC1CCN(CCCn2c(=O)n(C3CCN(C(=S)NC(c4ccccc4)c4ccccc4)CC3)c3ccccc32)CC1 [Compound 113, 1-[(N1-piperidinocarbothioylbiphenylmethylamino)-4-yl]-3-(4-methylpiperidin-1-yl-propyl)-1,3-dihydrobenzimidazol-2-one] |  |  |  | 0.023 µM |  | 89% | 7% |  |  |  | 47% | 70%
8 | O=C(Nc1ccccc1F)N1CCC(n2c(=O)n(CCCN3CCCCC3)c3ccccc32)CC1 [Compound 114, 1-[(N1-piperidinocarbonyl-2-fluorophenylamino)-4-yl]-3-(3-N-piperidinylpropyl)-1,3-dihydrobenzimidazol-2-one] |  |  |  |  |  | 17% | 2% |  |  |  | 4% | 1%
9 | O=c1n(CCCN2CCCCC2)c2ccccc2n1C1CCN(C(=S)Nc2ccccc2F)CC1 [Compound 115, 1-[(N1-piperidinocarbonthioyl-2-fluorophenylamino)-4-yl]-3-(3-N-piperidinylpropyl)-1,3-dihydrobenzimidazol-2-one] |  |  |  |  |  | 26% | 11% |  |  |  | 20% | 13%
10 | C[C@H](NC(=S)N1CCC(n2c(=O)n(CCCN3CCCCC3)c3ccccc32)CC1)c1ccccc1 [Compound 116, 1-[(N1-piperidinocarbonthioyl-R-(−)-alpha-methylbenzylamino)-4-yl]-3-(3-N-piperidinylpropyl)-1,3-dihydrobenzimidazol-2-one] |  |  |  |  |  | 25% | 18% |  |  |  | 47% | 85%
11 | CCCc1ccccc1NC(=O)N1CCC(n2c(=O)n(CCCN3CCCCC3)c3ccccc32)CC1 [Compound 117, 1-[(N1-piperidinocarbonyl-2-propylphenylamino)-4-yl]-3-(3-N-piperidinylpropyl)-1,3-dihydrobenzimidazol-2-one] |  |  |  | 0.331 µM |  | 1% | 15% |  |  |  | 43% | 68%
12 | O=c1n(CCCN2CCCCC2)c2ccccc2n1C1CCN(C(=S)NCC(c2ccccc2)c2ccccc2)CC1 [Compound 118, 1-[(N1-piperidinocarbothioyl-2,2-diphenylethylamino)-4-yl]-3-(3-N-piperidinylpropyl)-1,3-dihydrobenzimidazol-2-one] |  |  |  |  |  | 52% | 21% |  |  |  | 55% | 94%
13 | COc1ccccc1NC(=S)N1CCC(n2c(=O)n(CCCN3CCCCC3)c3ccccc32)CC1 [Compound 119, 1-[(N1-piperidinocarbothioyl-2-methoxyphenylamino)-4-yl]-3-(3-N-piperidinylpropyl)-1,3-dihydrobenzimidazol-2-one] |  |  |  | 0.061 µM |  | 13% | 19% |  |  |  | 29% | 48%
14 | O=C(NC(c1ccccc1)(c1ccccc1)c1ccccc1)N1CCC(n2c(=O)n(CCCN3CCCCC3)c3ccccc32)CC1 [Compound 120, 1-[(N1-piperidinocarbonyltriphenylmethylamino)-4-yl]-3-(3-N-piperidinylpropyl)-1,3-dihydrobenzimidazol-2-one] |  |  |  |  |  | 100% | 20% |  |  |  | 25% | 20%
